Measurements reported in patent US20050130909A1 (priority 2002, published 2005).

Experiments:
Rat mass balance study = type: in vivo, Sprague-Dawley rats
Description: Mass balance studies were conducted to determine the excretion pattern of dalbavancin following a single intravenous (IV) infusion of dalbavancin in male rats.
Water and methanol cage washes were also collected.

[1] = system: N,N′-diacetyl-Lys-D-Ala-D-Ala; test: ITC of binding to tri-peptide cell-wall analog, with and without HSA; settings: control ITC experiments with HSA
Description: Peptide concentrations were determined by weight.
Trans. R. Soc. Lond. Ser. A-Math. Phys. Eng. […] Wiley, (1998) p 103-111; and Cooper, A., Curr. Opin. Chem. Biol. (1999) 3, 557-563.

dipeptide (D-Ala-D-Ala) = test: ITC, preliminary experiments; type: binding; settings: absence of serum proteins
Lys-D-Ala-D-Lactate = test: ITC, preliminary experiments; type: binding; settings: absence of serum proteins
human albumin = human albumin (Homo sapiens, UniProt P02768); test: Protein binding by isothermal titration microcalorimetry (ITC); settings: for Calculated percent Binding to Human albumin: albumin 6×10^−4 M assumed
human α-glycoprotein = test: Protein binding by ITC; settings: protein […]10^−5 M assumed
[2] = ESI-MS analysis of multimers in solution; settings: dalbavancin 0.1 mg/ml in 8:2 water:isopropanol; teicoplanin 50 and 100 μg/mL in water
Description: Experiments were performed using an Applied Biosystem API III+ mass spectrometer equipped with a TurboIonSpray source, a Triple Quadrupole analyzer, operating in positive ion mode.
The mass spectra were obtained in electrospray positive mode on a Finnigan LCQ^Deca ion trap instrument previously tuned and calibrated in electrospray mode using Ultramark 1621, caffeine and MRFA (L-metionyl-arginyl-phenilalanyl-arginine).

Sequence of human albumin (P02768 25-609): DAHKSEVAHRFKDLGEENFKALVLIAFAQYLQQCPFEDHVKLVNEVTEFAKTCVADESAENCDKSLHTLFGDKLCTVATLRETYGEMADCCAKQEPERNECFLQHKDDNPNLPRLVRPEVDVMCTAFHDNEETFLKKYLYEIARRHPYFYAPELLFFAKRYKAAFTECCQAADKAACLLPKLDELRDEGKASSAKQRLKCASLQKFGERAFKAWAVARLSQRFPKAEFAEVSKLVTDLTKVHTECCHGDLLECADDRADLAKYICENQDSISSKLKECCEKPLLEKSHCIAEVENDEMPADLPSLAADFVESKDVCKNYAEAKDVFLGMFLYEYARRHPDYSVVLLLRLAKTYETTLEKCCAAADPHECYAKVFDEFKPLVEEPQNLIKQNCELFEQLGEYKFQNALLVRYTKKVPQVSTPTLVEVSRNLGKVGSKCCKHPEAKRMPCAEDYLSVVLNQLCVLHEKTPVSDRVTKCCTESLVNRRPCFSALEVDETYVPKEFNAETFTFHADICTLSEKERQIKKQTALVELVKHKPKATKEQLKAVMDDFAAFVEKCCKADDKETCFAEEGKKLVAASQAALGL

Q: With `CN[C@H]1C(=O)N[C@@H]2Cc3ccc(cc3)Oc3cc4cc(c3O[C@@H]3O[C@H](C(=O)O)[C@@H](O)[C@H](O)[C@H]3NC(=O)CCCCCCCCC(C)C)Oc3ccc(cc3Cl)[C@@H](O)[C@@H]3NC(=O)[C@H](NC(=O)[C@@H]4NC(=O)[C@@H](NC2=O)c2cc(cc(O)c2Cl)Oc2cc1ccc2O)c1ccc(O)c(c1)-c1c(O[C@H]2O[C@H](CO)[C@@H](O)[C@H](O)[C@@H]2O)cc(O)cc1[C@@H](C(=O)NCCCN(C)C)NC3=O` [^3H-dalbavancin] as the molecule, how does the “Dose remaining in the carcass” value (Rat mass balance study; 70 days post dose, mass balance study) read?
A: 4.5 % of the dose

Q: And the “Plasma t1/2” value (Rat mass balance study; rats, single IV 20 mg/kg)?
A: approximately 1 week

Q: For `CN[C@H](CC(C)C)C(=O)N[C@H]1C(=O)N[C@@H](CC(N)=O)C(=O)N[C@H]2C(=O)N[C@H]3C(=O)N[C@H](C(=O)N[C@H](C(=O)O)c4cc(O)cc(O)c4-c4cc3ccc4O)[C@H](O)c3ccc(c(Cl)c3)Oc3cc2cc(c3O[C@@H]2O[C@H](CO)[C@@H](O)[C@H](O)[C@H]2O[C@H]2C[C@](C)(N)[C@H](O)[C@H](C)O2)Oc2ccc(cc2Cl)[C@H]1O` [vancomycin, reference compound], which “Binding to tri-peptide in the presence of HSA (control)” value [1] is on record?
A: comparable to those seen in the absence of HSA

Q: And the “Binding to dipeptide (D-Ala-D-Ala)” value (dipeptide (D-Ala-D-Ala))?
A: no evidence of binding

Q: And the “Binding to Lys-D-Ala-D-Lactate” value (Lys-D-Ala-D-Lactate)?
A: no evidence of binding

Q: For Teicoplanin [reference compound], which “Calculated percent Binding to Human albumin” value (human albumin; antibiotic 1 μM) is on record?
A: 98.3%

Q: And the “Calculated percent Binding to Human albumin” value (human albumin; antibiotic 10 μM)?
A: 98.3%

Q: What about the “Calculated percent Binding to Human albumin” value (human albumin; antibiotic 100 μM) of the same molecule?
A: 98.0%

Q: What about the “Binding stoichiometry antibiotic:protein” value (human albumin; binding stoichiometry modeling of ITC data) of the same molecule?
A: 1:1 binding

Q: What about the “Calculated percent Binding to Human α-glycoprotein” value (human α-glycoprotein; antibiotic 1 μM) of the same molecule?
A: 9.6%

Q: And the “Calculated percent Binding to Human α-glycoprotein” value (human α-glycoprotein; antibiotic 10 μM)?
A: 9.1%

Q: And the “Calculated percent Binding to Human α-glycoprotein” value (human α-glycoprotein; antibiotic 100 μM)?
A: 6.0%

Q: And the Multimers in solution [2]?
A: does not show multimeric complexes in solution
